Measured values reported in PubChem BioAssay (NCI).
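Compound exposure: 48 hours, 5 concentrations, 96-well plates. Abbreviation: GI50, concentration required for 50% inhibition of growth. The concentration for full growth arrest is given as TGI.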

Columns and labels:
Assay in all cases: NCI anticancer screen, dose series, 48 h
UACC-257 melanoma = system: UACC-257 melanoma
BT-549 breast = system: BT-549 breast
786-0 renal = system: 786-0 renal
SK-MEL-5 melanoma = system: SK-MEL-5 melanoma
T-47D breast = system: T-47D breast
U251 CNS = system: U251 CNS
HCT-116 colon = system: HCT-116 colon
SW-620 colon = system: SW-620 colon
HOP-92 NSCLC = system: HOP-92 NSCLC
HT29 colon = system: HT29 colon

Row | SMILES | GI50 (UACC-257 melanoma) | TGI (UACC-257 melanoma) | GI50 (BT-549 breast) | TGI (BT-549 breast) | GI50 (786-0 renal) | TGI (786-0 renal) | GI50 (SK-MEL-5 melanoma) | TGI (SK-MEL-5 melanoma) | GI50 (T-47D breast) | TGI (T-47D breast) | GI50 (U251 CNS) | TGI (U251 CNS) | GI50 (HCT-116 colon) | TGI (HCT-116 colon) | GI50 (SW-620 colon) | TGI (SW-620 colon) | GI50 (HOP-92 NSCLC) | TGI (HOP-92 NSCLC) | GI50 (HT29 colon) | TGI (HT29 colon)
1 | COc1ccc(N(CC(=O)NCCC[Te]c2ccccc2)C(=O)CNC(=O)OC(C)(C)C)cc1 | 8.49 µM | 23.9 µM | 1.68 µM | 4.86 µM | 3.75 µM | 13 µM | 3.13 µM | 9.13 µM | 11 µM | 40.9 µM | 2.37 µM | 6.51 µM | 2.07 µM | 6.45 µM | 3.44 µM | 14.4 µM | 2.36 µM | 4.94 µM | 3.82 µM | 13.9 µM
2 | Cc1cc[n+]2c(c1)-c1cc(C)cc[n+]1CC2 | – | > 100 µM | – | > 100 µM | – | > 100 µM | – | > 100 µM | – | > 100 µM | – | > 100 µM | – | > 100 µM | – | > 100 µM | – | > 100 µM | – | > 100 µM
3 | CC(=O)NCc1cccc(C#Cc2cncnc2Nc2ccc(OCc3cccc(F)c3)c(Cl)c2)c1 | 12.3 µM | > 25 µM | 13.5 µM | > 25 µM | 10.7 µM | > 25 µM | 9.44 µM | > 25 µM | 9.68 µM | > 25 µM | 11 µM | > 25 µM | 9.05 µM | > 25 µM | 18.3 µM | > 25 µM | 5.66 µM | > 25 µM | 9.19 µM | > 25 µM
4 | CCCCCCNC(=O)Oc1ccc(/C(=C(\C)c2ccc(Cl)cc2)c2ccc(OCCN3CCCCC3)cc2)cc1 | 4.13 µM | 9.98 µM | 3.61 µM | 8.12 µM | 1.93 µM | 6.41 µM | 2.46 µM | 6.71 µM | 0.722 µM | 7.11 µM | 3.52 µM | 7.92 µM | 0.962 µM | 4.78 µM | 1.54 µM | 5.59 µM | 3.55 µM | 7.88 µM | 1.11 µM | 4.02 µM
5 | Cc1cc(C#Cc2ccc(C(C)(C)C)cc2)ccc1-n1c(/C=C/c2ccc(O)cc2O)nc2ccccc2c1=O | 6.92 µM | 20.4 µM | 8.6 µM | 33.1 µM | 5.08 µM | 17.9 µM | 1.77 µM | 3.98 µM | 3.85 µM | 24.4 µM | 2.11 µM | 6.03 µM | 2.89 µM | 10.8 µM | 1.81 µM | 3.71 µM | 2.82 µM | 8.31 µM | 2.08 µM | 5.27 µM
6 | N#CCN1CCn2c1nsc2=S | > 100 µM | > 100 µM | > 100 µM | > 100 µM | > 100 µM | > 100 µM | > 100 µM | > 100 µM | > 100 µM | > 100 µM | > 100 µM | > 100 µM | > 100 µM | > 100 µM | > 100 µM | > 100 µM | > 100 µM | > 100 µM | > 100 µM | > 100 µM
7 | C/C(=C\c1cnc(C)s1)[C@@H]1C[C@@H]2O[C@@H]2CCC[C@H](C)[C@H](O)[C@@H](C)C(=O)C(C)(C)[C@@H](O)CC(=O)O1 | – | – | < 0.01 µM | > 100 µM | < 0.01 µM | > 100 µM | < 0.01 µM | > 100 µM | 0.0171 µM | > 100 µM | < 0.01 µM | > 100 µM | < 0.01 µM | > 100 µM | < 0.01 µM | > 100 µM | < 0.0162 µM | > 100 µM | < 0.01 µM | > 100 µM
